# What was measured:
# [1] = tested on: IKZF2; assay: Cellular degradation assay, eGFP-IKZF2Δ fusion with mCherry reporter in Flp-In 293 cells; format: cell-based; details: for IKZF2 GFP/RFP Relative Abundance: 5 h incubation, n=1
# Description: (§1) IKZF1Δ, IKZF2Δ, GSPT1 and SALL4 ZnF1-2 were subcloned into mammalian pcDNA5/FRT Vector (Ampicillin and Hygromycin B resistant) modified to contain MCS-eGFP-P2A-mCherry. […] Following 2-3 passage cycle, FACS (FACSAria™ II, BD) was used to enrich for cells expressing eGFP and mCherry. Cells stably expressing the IKZF1Δ, IKZF2Δ, GSPT1 or SALL4 Znf1-2 GFP fusions with mCherry reporter were seeded at 30-50% confluency in 384-well plates with 50 μL FluoroBrite™ DMEM media (Thermo Fisher Scientific, A18967) containing 10% FBS per well a day before compound treatment. Compound titrations were dispensed using a D300e Digital Dispenser (HP), normalized to 0.5% DMSO, and incubated with cells for 5 hours.
# (§2) The resulting images were analyzed using CellProfiler™. A series of image analysis steps (‘image analysis pipeline’) was constructed. First, the red and green channels were aligned and cropped to target the middle of each well (to avoid analysis of heavily clumped cells at the edges), and a background illumination function was calculated for both red and green channels of each well individually and subtracted to correct for illumination variations across the 384-well plate from various sources of error. An additional step was then applied to the green channel to suppress the analysis of large auto fluorescent artifacts and enhance the analysis of cell specific fluorescence by way of selecting for objects under a given size, 30 A.U., and with a given shape, speckles. mCherry-positive cells were then identified in the red channel filtering for objects between 8-60 pixels in diameter and using intensity to distinguish between clumped objects. The green channel was then segmented into GFP positive and negative areas and objects were labeled as GFP positive if at least 40% of it overlapped with a GFP positive area. The fraction of GFP-positive cells/mCherry-positive cells in each well was then calculated, and the green and red images were rescaled for visualization.
# (§3) The degradation assay was performed as described above. […] Degradation was measured after 5 h of compound treatment and the concentrations that lead to half degradation at 5 h (DC50,5 h) were calculated using the nonlinear fit variable slope model (GraphPad Software).
# [2] = biological target: T1, IKZF1 (Homo sapiens, UniProt Q13422); assay: Cellular degradation assay, eGFP-IKZF1Δ fusion with mCherry reporter in Flp-In 293 cells; format: cell-based; details: for IKZF1 GFP/RFP Relative Abundance: 5 h incubation, n=1
# T1 construct: expressed in transfected cells; host or cells: Flp-In 293
# Description: as §1, §2, §3
# [3] = biological target: GSPT1 (Homo sapiens, UniProt P15170+Q96SW2); assay: Cellular degradation assay, eGFP-GSPT1 fusion with mCherry reporter in Flp-In 293 cells; format: cell-based; design: expressed in transfected cells; host or cells: Flp-In 293; details: half degradation at 5 h (DC50,5 h); triplicate, 11 point dose response
# Description: as §1, §2, §3
# [4] = biological target: T2, CRBN and Helios (IKZF2) (Homo sapiens, UniProt Q96SW2+Q9UKS7); assay: TR-FRET dimerization assay (CRBN-IKZF2 ternary complex formation); format: binding; details: n=1
# T2 construct: His (N); Strep (N)
# Description: A focused library of imide analogs was synthesized and assessed for their ability to induce dimerization between CRBN and Helios in a time-resolved fluorescence energy transfer (TR-FRET) assay (FIG. 1A).
# Prior to TR-FRET measurements being conducted, the reactions were incubated for 15 min at rt. […] The TR-FRET signal of each data point was extracted by calculating the 520/490 nm ratios. Data from single measurements (n=1), each calculated as an average of at least three technical replicates per well per experiment are presented in Table 1.
# BODIPY-labeled CRBN in complex with Damage Specific DNA Binding Protein 1 (DDB1) harboring an internal deletion of the flexible BPB propeller (DDB1AB-CRBN) and in vitro biotinylated IKZF2 were treated with increasing concentrations of the indicated compounds in the presence of tracer amounts of Terbium-Streptavidin (Tb-SA). Compound-induced recruitment of IKZF2 to CRBN was quantified following the 520/490 TR-FRET ratio using a PHERAstar® plate reader (BMG) utilizing two synchronized PMTs to reduce background.
# [5] = half degradation at 5 h (DC50,5 h), triplicate, 11 point dose response
# [6] = compound concentration 6.6667E−05
# [7] = compound concentration 6.6667E−06
# [8] = compound concentration 6.6667E−07 (667 nM)
# [9] = compound concentration 2.00E−05
# [10] = compound concentration 2.00E−06
# [11] = compound concentration 2.00E−07
# T2 sequence (Q96SW2 whole entry): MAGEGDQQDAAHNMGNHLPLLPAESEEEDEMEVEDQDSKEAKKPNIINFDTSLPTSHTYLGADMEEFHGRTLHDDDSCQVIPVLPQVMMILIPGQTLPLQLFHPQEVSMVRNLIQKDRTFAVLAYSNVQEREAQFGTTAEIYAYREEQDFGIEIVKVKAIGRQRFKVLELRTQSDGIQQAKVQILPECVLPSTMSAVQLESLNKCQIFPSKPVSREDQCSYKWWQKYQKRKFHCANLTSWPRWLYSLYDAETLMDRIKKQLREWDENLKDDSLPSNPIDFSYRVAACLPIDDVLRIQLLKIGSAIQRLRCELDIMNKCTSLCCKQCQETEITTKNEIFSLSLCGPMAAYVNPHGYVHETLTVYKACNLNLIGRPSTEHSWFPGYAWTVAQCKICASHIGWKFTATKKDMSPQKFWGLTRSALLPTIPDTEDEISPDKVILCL
# T2 sequence (Q9UKS7 whole entry): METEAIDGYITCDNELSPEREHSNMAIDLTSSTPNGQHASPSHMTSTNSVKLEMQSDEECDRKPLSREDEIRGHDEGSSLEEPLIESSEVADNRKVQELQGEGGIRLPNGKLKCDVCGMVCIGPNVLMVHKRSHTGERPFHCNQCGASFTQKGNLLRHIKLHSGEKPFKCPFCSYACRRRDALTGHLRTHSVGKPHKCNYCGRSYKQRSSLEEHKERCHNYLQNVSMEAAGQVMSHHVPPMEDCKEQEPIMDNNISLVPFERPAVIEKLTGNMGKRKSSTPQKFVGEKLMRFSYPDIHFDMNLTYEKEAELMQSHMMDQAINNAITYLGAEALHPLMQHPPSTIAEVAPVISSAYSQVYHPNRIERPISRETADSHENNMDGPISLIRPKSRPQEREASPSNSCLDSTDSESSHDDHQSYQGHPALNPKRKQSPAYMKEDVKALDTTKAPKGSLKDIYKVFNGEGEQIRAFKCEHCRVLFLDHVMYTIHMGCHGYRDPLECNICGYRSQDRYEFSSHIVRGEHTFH
# T1 sequence (Q13422 83-213 isoform Q13422-7 limits assumed): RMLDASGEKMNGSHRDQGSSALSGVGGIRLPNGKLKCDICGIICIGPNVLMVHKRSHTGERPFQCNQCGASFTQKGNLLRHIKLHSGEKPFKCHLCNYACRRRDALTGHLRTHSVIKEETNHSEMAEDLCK
# T1 sequence (Q96SW2 whole entry partner, the tested form may be a part): as the sequence (Q96SW2 whole entry) above
# T1 sequence (Q16531 2-1140 partner limits assumed): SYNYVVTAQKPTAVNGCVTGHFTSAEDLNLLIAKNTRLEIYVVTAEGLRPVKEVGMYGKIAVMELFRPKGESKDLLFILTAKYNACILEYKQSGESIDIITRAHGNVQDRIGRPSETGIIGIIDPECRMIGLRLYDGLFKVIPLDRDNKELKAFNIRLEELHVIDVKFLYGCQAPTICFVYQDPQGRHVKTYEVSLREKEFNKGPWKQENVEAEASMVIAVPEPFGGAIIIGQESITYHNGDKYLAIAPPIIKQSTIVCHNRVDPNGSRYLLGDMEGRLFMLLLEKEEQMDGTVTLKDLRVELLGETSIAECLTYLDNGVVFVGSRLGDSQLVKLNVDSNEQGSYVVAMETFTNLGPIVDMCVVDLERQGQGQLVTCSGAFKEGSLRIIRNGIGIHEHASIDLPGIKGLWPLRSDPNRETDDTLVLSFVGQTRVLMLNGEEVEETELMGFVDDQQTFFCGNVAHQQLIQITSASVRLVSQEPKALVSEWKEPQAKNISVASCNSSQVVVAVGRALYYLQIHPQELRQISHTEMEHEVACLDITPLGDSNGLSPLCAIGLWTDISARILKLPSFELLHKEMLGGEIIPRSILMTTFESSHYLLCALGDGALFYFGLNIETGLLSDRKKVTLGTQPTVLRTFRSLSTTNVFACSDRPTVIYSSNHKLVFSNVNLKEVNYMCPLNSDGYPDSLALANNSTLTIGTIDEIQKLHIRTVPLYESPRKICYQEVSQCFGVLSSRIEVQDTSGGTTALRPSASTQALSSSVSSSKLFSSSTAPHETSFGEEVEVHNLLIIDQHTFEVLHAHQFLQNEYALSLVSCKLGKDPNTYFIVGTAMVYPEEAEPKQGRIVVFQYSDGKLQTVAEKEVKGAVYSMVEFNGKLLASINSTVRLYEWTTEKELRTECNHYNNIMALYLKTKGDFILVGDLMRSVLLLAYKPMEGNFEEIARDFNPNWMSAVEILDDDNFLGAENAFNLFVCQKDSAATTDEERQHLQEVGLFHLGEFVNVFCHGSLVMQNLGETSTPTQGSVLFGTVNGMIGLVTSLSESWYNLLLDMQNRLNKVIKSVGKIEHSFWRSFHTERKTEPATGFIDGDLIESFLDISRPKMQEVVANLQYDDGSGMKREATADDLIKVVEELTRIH
# Sequence of GSPT1 (P15170 whole entry, the tested form may be a part): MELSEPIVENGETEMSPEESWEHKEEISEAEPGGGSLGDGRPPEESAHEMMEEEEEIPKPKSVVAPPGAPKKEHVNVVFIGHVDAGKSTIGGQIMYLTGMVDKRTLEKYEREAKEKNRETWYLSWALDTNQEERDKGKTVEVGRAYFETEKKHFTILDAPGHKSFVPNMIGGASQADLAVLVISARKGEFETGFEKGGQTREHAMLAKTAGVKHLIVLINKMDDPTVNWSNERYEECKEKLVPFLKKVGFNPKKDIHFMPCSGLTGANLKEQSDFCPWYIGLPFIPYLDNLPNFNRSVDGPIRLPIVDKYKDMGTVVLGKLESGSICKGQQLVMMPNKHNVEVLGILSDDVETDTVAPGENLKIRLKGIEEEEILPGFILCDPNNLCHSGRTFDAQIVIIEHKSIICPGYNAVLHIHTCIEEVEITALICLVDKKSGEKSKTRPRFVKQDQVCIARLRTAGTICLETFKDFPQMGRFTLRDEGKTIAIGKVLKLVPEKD
# Sequence of GSPT1 (Q96SW2 whole entry, the tested form may be a part): as the sequence (Q96SW2 whole entry) above
# Sequence of GSPT1 (Q16531 whole entry partner, the tested form may be a part): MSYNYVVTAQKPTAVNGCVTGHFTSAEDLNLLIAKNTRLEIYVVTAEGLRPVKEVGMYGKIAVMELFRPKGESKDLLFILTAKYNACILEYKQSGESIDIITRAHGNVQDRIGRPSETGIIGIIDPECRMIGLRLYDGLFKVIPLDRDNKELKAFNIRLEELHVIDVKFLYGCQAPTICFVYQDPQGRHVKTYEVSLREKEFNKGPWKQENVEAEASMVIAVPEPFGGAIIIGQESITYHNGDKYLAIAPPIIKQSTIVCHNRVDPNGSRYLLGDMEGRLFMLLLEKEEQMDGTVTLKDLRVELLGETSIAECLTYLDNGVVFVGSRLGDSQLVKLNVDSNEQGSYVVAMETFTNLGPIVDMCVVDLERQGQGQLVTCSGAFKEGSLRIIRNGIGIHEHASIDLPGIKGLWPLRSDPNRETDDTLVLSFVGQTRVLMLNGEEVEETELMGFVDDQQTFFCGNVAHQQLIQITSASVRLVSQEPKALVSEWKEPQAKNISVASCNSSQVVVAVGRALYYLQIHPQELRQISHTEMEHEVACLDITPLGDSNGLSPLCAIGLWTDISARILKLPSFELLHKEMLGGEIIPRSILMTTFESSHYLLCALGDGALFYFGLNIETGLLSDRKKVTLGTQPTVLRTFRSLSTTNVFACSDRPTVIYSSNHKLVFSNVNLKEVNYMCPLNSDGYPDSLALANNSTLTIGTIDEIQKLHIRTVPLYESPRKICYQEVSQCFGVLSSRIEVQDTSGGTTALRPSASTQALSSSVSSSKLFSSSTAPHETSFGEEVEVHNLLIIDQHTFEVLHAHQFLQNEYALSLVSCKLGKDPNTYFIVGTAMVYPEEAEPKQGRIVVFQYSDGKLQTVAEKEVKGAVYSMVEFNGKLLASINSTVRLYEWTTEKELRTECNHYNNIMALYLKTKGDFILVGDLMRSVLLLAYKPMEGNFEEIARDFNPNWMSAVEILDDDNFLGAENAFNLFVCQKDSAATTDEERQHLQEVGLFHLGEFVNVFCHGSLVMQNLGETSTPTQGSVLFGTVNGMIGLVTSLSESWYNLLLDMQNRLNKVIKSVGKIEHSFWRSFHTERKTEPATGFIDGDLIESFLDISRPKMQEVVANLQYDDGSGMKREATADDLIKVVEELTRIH
SMILES,degradation selectivity IKZF2/IKZF1 ([1]; from DC50 values of Table 3),"DC50 [1, 5]","DC50 [2, 5]",DC50 [3],"TR-FRET-IKZF2 (Normalized to CC-885) [4, 6]","TR-FRET-IKZF2 (Normalized to CC-885) [4, 7]","TR-FRET-IKZF2 (Normalized to CC-885) [4, 8]","IKZF2 GFP/RFP Relative Abundance [1, 9]","IKZF2 GFP/RFP Relative Abundance [1, 10]","IKZF2 GFP/RFP Relative Abundance [1, 11]","IKZF1 GFP/RFP Relative Abundance [2, 9]","IKZF1 GFP/RFP Relative Abundance [2, 10]","IKZF1 GFP/RFP Relative Abundance [2, 11]"
"CC(C)(NC(=O)Cc1cccc(C(F)(F)F)c1)c1cccc(NC2=CC(=O)N(C3CCC(=O)NC3=O)C2=O)c1 (stereo not shown) [Compound 139, N-(2-(3-((1-(2,6-dioxopiperidin-3-yl)-2,5-dioxo-2,5-dihydro-1H-pyrrol-3-yl)amino)phenyl)propan-2-yl)-2-(3-(trifluoromethyl)phenyl)acetamide]",10 fold,17 nM,167 nM,> 1000 nM,,,,,,,,,
"Cc1ccc(NC(=O)N[C@H](C)c2cccc(NC3=CC(=O)N(C4CCC(=O)NC4=O)C3=O)c2)cc1Cl (stereo partly drawn) [Compound 70, 1-(3-chloro-4-methylphenyl)-3-((1R)-1-(3-((1-(2,6-dioxopiperidin-3-yl)-2,5-dioxo-2,5-dihydro-1H-pyrrol-3-yl)amino)phenyl)ethyl)urea]",,,,,1.531,1.409,1.271,0.021,0.057,0.031,0.076,0.080,0.103
"O=C1CCC(N2C(=O)C=C(Nc3cccc(CNC(=O)NCc4ccccc4)c3)C2=O)C(=O)N1 (stereo not shown) [Compound 81, 1-benzyl-3-(3-((1-(2,6-dioxopiperidin-3-yl)-2,5-dioxo-2,5-dihydro-1H-pyrrol-3-yl)amino)benzyl)urea]",,,,,0.703,0.585,0.519,0.587,0.660,0.737,0.063,0.056,0.094
"O=C1CCC(N2C(=O)C=C(Nc3cccc(CNC(=O)Nc4ccccc4)c3)C2=O)C(=O)N1 (stereo not shown) [Compound 119, 1-(3-((1-(2,6-dioxopiperidin-3-yl)-2,5-dioxo-2,5-dihydro-1H-pyrrol-3-yl)amino)benzyl)-3-phenylurea]",,,,,0.817,0.671,0.629,0.392,0.516,0.544,0.055,0.079,0.101
"Cc1ccc(NC(=O)N2CCc3ccc(NC4=CC(=O)N(C5CCC(=O)NC5=O)C4=O)cc3C2)cc1Cl (stereo not shown) [Compound 109, N-(3-chloro-4-methylphenyl)-7-((1-(2,6-dioxopiperidin-3-yl)-2,5-dioxo-2,5-dihydro-1H-pyrrol-3-yl)amino)-3,4-dihydroisoquinoline-2(1H)-carboxamide]",,,,,0.463,0.640,0.506,0.563,0.313,0.539,0.189,0.101,0.142

# Reference: patent publication US12227488B2, “Small molecule degraders of Helios and methods of use” (DANA-FARBER CANCER INSTITUTE, INC., priority 2018, dated 2025)
